Test results published in PMC4076210, “Discovery of Novel AKT Inhibitors with Enhanced Anti-Tumor Effects in Combination with the MEK Inhibitor” (PLoS ONE, 2014).

Assays:
CLK2(h) = target: T1, CLK2(h) (Homo sapiens, UniProt P49760); assay: Kinase panel; assay type: biochemical
T1 construct: purchased Millipore KinaseProfiler

PKBβ(h) = target: T2, PKBβ(h) (Homo sapiens, UniProt P31751); assay: Kinase panel; assay type: biochemical
T2 construct: purchased Millipore KinaseProfiler

PKBγ(h) = target: T3, PKBγ(h) (Homo sapiens, UniProt Q9Y243); assay: Kinase panel; assay type: biochemical
T3 construct: purchased Millipore KinaseProfiler
T3 sequence (Q9Y243 whole entry): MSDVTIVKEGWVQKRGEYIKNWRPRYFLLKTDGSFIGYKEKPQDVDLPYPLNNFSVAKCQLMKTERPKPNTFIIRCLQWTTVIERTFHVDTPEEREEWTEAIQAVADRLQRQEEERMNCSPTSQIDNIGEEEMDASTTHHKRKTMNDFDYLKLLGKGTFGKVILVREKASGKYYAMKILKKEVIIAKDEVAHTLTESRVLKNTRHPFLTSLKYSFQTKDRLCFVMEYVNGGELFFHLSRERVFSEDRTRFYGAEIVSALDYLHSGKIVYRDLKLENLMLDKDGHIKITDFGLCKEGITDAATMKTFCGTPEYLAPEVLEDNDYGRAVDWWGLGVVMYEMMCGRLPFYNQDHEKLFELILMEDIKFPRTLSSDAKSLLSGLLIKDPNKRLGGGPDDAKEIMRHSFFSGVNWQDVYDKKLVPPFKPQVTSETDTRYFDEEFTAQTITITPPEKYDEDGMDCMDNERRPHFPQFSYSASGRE

A3 cells = assay: Cell cycle analysis; assay type: cell-based, human; details: A3, 1 µM
Procedure: (§1) Cells were plated in 96 well plates at a density of 3000-5000 cells/well and allowed to adhere overnight. Cells were treated with DMSO or various concentrations of drug for 72 h, fixed and stained with propidium iodide to stain nuclei (Vindelov, 1982). Cells were analyzed in a flow cytometer (FACSCalibur; BD Biosciences, Franklin Lakes, NJ) and the fraction of cells in each phase of cell cycle was determined using the cell cycle analysis platform contained within the FlowJo software (Tree Star, Ashland, OR).

BT474 cells = assay: Cell cycle analysis; assay type: cell-based, human; details: BT474, evident at 1 µM
Procedure: as §1

I9.2 cells = assay: Cell cycle analysis; assay type: cell-based, human; details: I9.2, 1 µM
Procedure: as §1

LNCaP cells = assay: Cell cycle analysis; assay type: cell-based, human; details: various concentrations
Procedure: as §1

CAPAN-2 tumor xenografts = assay: Xenograft tumor growth inhibition, combination with MEK inhibitor; assay type: in vivo, mouse; details: 30 mg/kg, day 69
Procedure: (§2) Tumors were initiated by injecting either cells (SKOV3, CAPAN-2 and HPAC) or a tumor fragments (BT474) subcutaneously into 6–8 week female athymic nude (SKOV3) and SCID (all others) mice. Once tumors reached between 120 and 300 mm^3, mice were randomized according to tumor volume into groups of n = 7–10 mice per treatment. GSK2110183 and GSK2141795 were administered daily at various doses by oral gavage. In combination experiments, GSK1120212 was also administered daily by oral gavage. Tumor volumes and body weight were measured twice weekly, tumor volume was measured with calipers and calculated using equation: […]. Results are represented as percent inhibition on completion of dosing = 100 x [1- average growth of drug-treated population/average growth of vehicle-treated control population].

HPAC tumor xenografts = assay: as above; assay type: in vivo, mouse; details: 30 mg/kg daily, day 42
Procedure: as §2

T2 sequence (P31751 whole entry): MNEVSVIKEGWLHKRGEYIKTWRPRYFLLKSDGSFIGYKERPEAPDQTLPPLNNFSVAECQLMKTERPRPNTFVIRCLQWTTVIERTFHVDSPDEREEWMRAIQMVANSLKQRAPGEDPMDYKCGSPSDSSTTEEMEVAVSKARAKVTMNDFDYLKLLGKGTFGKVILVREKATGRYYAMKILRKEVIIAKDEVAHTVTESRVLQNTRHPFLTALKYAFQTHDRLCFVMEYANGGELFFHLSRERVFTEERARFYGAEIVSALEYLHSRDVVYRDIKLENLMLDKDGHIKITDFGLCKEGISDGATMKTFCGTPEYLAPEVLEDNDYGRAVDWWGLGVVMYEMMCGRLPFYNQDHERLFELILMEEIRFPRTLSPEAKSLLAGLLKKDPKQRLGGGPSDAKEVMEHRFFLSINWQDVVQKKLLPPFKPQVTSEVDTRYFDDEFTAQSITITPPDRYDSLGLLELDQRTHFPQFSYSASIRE
T1 sequence (P49760 whole entry): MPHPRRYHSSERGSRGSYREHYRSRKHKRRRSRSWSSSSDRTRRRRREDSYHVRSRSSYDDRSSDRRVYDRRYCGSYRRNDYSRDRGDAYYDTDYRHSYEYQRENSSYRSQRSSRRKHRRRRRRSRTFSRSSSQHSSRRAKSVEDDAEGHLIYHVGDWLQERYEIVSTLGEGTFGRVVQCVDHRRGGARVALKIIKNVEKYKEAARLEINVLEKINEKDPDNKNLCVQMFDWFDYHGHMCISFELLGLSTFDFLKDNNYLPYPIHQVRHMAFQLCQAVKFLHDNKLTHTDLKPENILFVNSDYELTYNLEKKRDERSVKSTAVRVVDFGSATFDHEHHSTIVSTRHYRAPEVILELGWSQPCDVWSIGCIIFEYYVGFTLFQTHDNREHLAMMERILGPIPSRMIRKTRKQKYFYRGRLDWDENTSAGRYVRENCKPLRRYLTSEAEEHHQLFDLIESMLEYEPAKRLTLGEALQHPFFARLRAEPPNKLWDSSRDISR

Compound `Cn1ncc(Cl)c1-c1cc(C(=O)N[C@H](CN)Cc2ccc(F)c(F)c2)oc1Cl` [GSK2141795] has an inhibition at 0.5 µM (CLK2(h); 0.5 µM) of 58%, an inhibition at 10 µM (CLK2(h); 10 µM) of 94% and an inhibition at 0.5 µM (PKBβ(h); 0.5 µM) of 95%. It also gave an inhibition at 10 µM (PKBβ(h); 10 µM) of 99%, an inhibition at 0.5 µM (PKBγ(h); 0.5 µM) of 98% and an inhibition at 10 µM (PKBγ(h); 10 µM) of 98%. For the same compound, the “effect on cell cycle” value (A3 cells) was “dose dependant increase in G1 cellular arrest”, the “effect on cell cycle” value (BT474 cells) was “G1 arrest” and the “effect on cell cycle” value (I9.2 cells) was “dose dependant increase in G1 cellular arrest”. The “effect on cell cycle” value (LNCaP cells) was “concentration-dependent increase in cells within the sub-G1 phase”, the TGI (CAPAN-2 tumor xenografts) was 26% and the TGI (HPAC tumor xenografts) was 31%.
